EP4245365B1, “A FXR SMALL MOLECULE AGONIST, THE PREPARATION AND USE THEREOF” (Cascade Pharmaceuticals, Inc., priority 2022, dated 2023)
Like-named read-outs stand apart in the source and are kept apart here. Values belong to the molecule of their own block, whether it stands above or below them.

What was measured:
[1] = target: T1, FXR (Homo sapiens, UniProt Q96RI1); assay: FXR agonistic activity by reporter gene (pGAL4-FXR-LBD / pG5-Luc, Dual-Glo luciferase) in HEK293T cells; assay type: cell-based
T1 construct: expressed in transfected cells; host or cells: HEK293T
T1 sequence (Q96RI1 212-476 isoform Q96RI1-1): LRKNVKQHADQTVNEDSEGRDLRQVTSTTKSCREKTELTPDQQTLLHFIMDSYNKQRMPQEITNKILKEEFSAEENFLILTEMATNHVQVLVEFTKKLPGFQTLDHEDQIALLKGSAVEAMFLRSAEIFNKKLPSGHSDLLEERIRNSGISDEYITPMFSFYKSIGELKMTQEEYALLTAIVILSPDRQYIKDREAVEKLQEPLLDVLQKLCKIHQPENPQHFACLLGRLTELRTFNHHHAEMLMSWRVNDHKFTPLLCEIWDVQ
Method: 1.2 Plasmid Co-transfection of HEK293T Cells and Compound Treatment HEK293T cells were seeded in 96-well plates at a density of 1×10^4/well one day before plasmid transfection. […] 2 duplicate wells were set up in total. […] The dose-response curves were fitted with four parameters using GraphPad Prism 6.0 software, and EC50 values were calculated.

[2] = mouse, in vivo, iv, 1 mg/kg
Method: (§1) In each group of embodiment, 6 male ICR mice with a similar body weight were selected, of which 3 mice were dosed orally in a single dose of 3 mg/kg, and 3 mice were dosed intravenously in a single dose of 1 mg/kg. Blood samples were collected at time points of 15 min, 30 min, 1 h, 2 h, 4 h and 7 h after administration. The concentrations of plasma samples were analyzed by LC-MS/MS.
(§2) 12 healthy male ICR mice, commercially available from Charles River with an animal production license NO.: 2021123 1Abzz0619000376, were divided into 4 groups, 3 in each group.
(§3) Formulation preparation: a certain amount of compounds were weighed and added into a 2% DMSO+15% Solutol+83% saline, to prepare a clear solution.
(§4) Dosage: ICR mice were fasted overnight and given each compound at an oral dose of 3 mg/kg or an intravenous dose of 1 mg/kg. The administrated volume for oral and intravenous administration are 10 mL/kg and 5 mL/kg, respectively.
(§5) Sample collection: About 30 µL of blood was collected via great saphenous vein at 15 min, 30 min, 1 h, 2 h, 4 h and 7 h after dosage. The blood was placed into a commercial tube containing K2-EDTA. Plasma samples were then obtained by centrifuging the blood samples at approximately 4°C, 4600 rpm for 5 minutes. All plasma samples were then quickly frozen on dry ice and kept at -70°C until LC-MS/MS analysis.
(§6) Sample preparation: 10 µL of plasma samples were precipitated by methanol containing 50 nmol/L of α-naphthoflavone as internal standard. The mixture was votex-mixed well and centrifuged at 14000 rpm for 5 min at 4°C. 75 µL of the supernatant was taken and mixed with 75 µL of methanol, and introduced for LC-MS/MS analysis.

[3] = in vivo; conditions: mouse, po, 3 mg/kg
Method: as §1, §2, §3, §4, §5, §6

[4] = HEK293T cells co-transfected with pGAL4-FXR-LBD, pG5-Luc, phRL-TK, 24 h treatment, read-out: Cellular Level Activity EC50(nM) of FXR
[5] = HEK293T reporter gene assay, read-out: EC50 values (FXR agonistic activity)
[6] = Cellular Level Activity EC50(nM) of FXR, HEK293T cells co-transfected with pGAL4-FXR-LBD, pG5-Luc, phRL-TK, 24 h treatment
[7] = EC50 values (FXR agonistic activity), HEK293T reporter gene assay

Structure (SMILES): O=c1[nH]c(-c2ccc(N3[C@@H]4CC[C@H]3C[C@@H](OCc3c(-c5c(Cl)cccc5Cl)noc3C3CC3)C4)cc2F)no1 [Control 1, reference compound]
- EC50 [1, 6]: 5 to 10 nM

Structure (SMILES): [2H]C([2H])(OC1CC2CCC(C1)N2c1ccc(-c2noc(=O)[nH]2)c(F)c1)c1c(-c2c(Cl)cccc2Cl)noc1C1CC1 (stereo not shown) [Example 3]
- EC50 [1, 6]: < 5 nM
- EC50 [1, 7]: < 5 nM
- FXR agonistic activity / cellular level activity (in words) ([1]; HEK293T reporter gene assay, comparison with LJN452 and Control 1): significantly improved activity

Structure (SMILES): [2H]C(OC1CC2CCC(C1)N2c1ccc(-c2noc(=O)[nH]2)c(F)c1)c1c(-c2c(Cl)cccc2Cl)noc1C1CC1 (stereo not shown) [Example 4]
- EC50 [1, 6]: < 5 nM
- EC50 [1, 7]: < 5 nM

Structure (SMILES): [2H]C([2H])(O[C@H]1C[C@H]2CC[C@@H](C1)N2c1ccc(-c2noc(=O)[nH]2)c(F)c1)c1c(-c2ccccc2C(F)(F)F)noc1C1CC1 [Embodime nt 2]
- CL_obs [2]: 21.6 ± 2.4 mL/min/kg
- Vss_obs [2]: 0.704 ± 0.033 L/kg
- AUC(0-t) at 7 h [3]: 587 ± 54 ng·h/mL
- Cmax [3]: 555 ± 25 ng/mL
- bioavailability [3]: 25.2%

Structure (SMILES): [2H]C([2H])(OC1CC2CCC(C1)N2c1ccc(-c2noc(=O)[nH]2)c(F)c1)c1c(-c2ccccc2OC(F)(F)F)noc1C1CC1 (stereo not shown) [Example 9]
- EC50 [1, 4]: 5 to 10 nM

Structure (SMILES): [2H]C([2H])(OC1CC2CCC(C1)N2c1ccc(-c2noc(=O)[nH]2)c(F)c1)c1c(-c2ccccc2C(F)(F)F)noc1C1CC1 (stereo not shown) [Example 8]
- EC50 [1, 4]: 5 to 10 nM

Structure (SMILES): [2H]C([2H])(OC1CC2CCC(C1)N2c1ccc(-c2noc(=O)[nH]2)c(C(F)(F)F)c1)c1c(-c2c(Cl)cccc2Cl)noc1C1CC1 (stereo not shown) [Example 7]
- EC50 [1, 4]: 5 to 10 nM

Structure (SMILES): O=c1[nH]c(-c2ccc(N3C4CCC3CC(OCc3c(-c5ccccc5C(F)(F)F)noc3C3CC3)C4)cc2F)no1 (stereo not shown) [Embodime nt 1]
- CL_obs [2]: 20.5 ± 4.6 mL/min/kg
- Vss_obs [2]: 0.418 ± 0.076 L/kg
- AUC(0-t) at 7 h [3]: 318 ± 172 ng·h/mL
- Cmax [3]: 312 ± 140 ng/mL
- bioavailability [3]: 12.6%

The next lines start with the values.

- EC50 [1, 4]: < 5 nM
- EC50 [1, 5]: < 5 nM
Structure (SMILES): [2H]C([2H])(OC1CC2CCC(C1)N2c1ccc(-c2noc(=O)[nH]2)nc1)c1c(-c2c(Cl)cccc2Cl)noc1C1CC1 (stereo not shown) [Example 2]

- EC50 [1, 4]: 5 to 10 nM
Structure (SMILES): [2H]C([2H])(OC1CC2CCC(C1)N2c1ccc(-c2noc(=O)[nH]2)c(C)c1)c1c(-c2c(Cl)cccc2Cl)noc1C1CC1 (stereo not shown) [Example 5]

- EC50 [1, 4]: 5 to 10 nM
Structure (SMILES): [2H]C([2H])(OC1CC2CCC(C1)N2c1ccc(-c2noc(=O)[nH]2)c(OC)c1)c1c(-c2c(Cl)cccc2Cl)noc1C1CC1 (stereo not shown) [Example 6]

- EC50 [1, 4]: < 5 nM
- EC50 [1, 5]: < 5 nM
Structure (SMILES): [2H]C([2H])(OC1CC2CCC(C1)N2c1ccc(-c2noc(=O)[nH]2)cc1)c1c(-c2c(Cl)cccc2Cl)noc1C1CC1 (stereo not shown) [Example 1]
